The values below are quoted from earlier work in patent US7163699B2, “Progestin co-micronized with a surfactant pharmaceutical composition comprising same methods for making same and uses thereof” (Laboratories Besins International, priority 2001, dated 2007).

For this data set the following is noted: co-micronization with sodium lauryl sulfate or a sucrose ester of stearic acid.

As for `O=C1NC(=O)C(c2ccccc2)(c2ccccc2)N1` [phenitoin], the solubility of phenitoin entry was “not improved”.
